Several values for one entry are separate records, joined by “and”; a condition that tells them apart may be missing. Equal values may be shown once. Entries after “also recorded” stand apart in the source; their conditions may differ.
How the values were obtained:
[1] = tested on: rhesus monkeys with spontaneous chronic kidney disease; test: Effect on blood pressure (SBP, DBP, MBP, HR) after anesthesia, 8-week administration; format: in vivo, Macaca mulatta (Rhesus Macaque); details: for DBP reduced by on average, compared with the baseline / SBP reduced by on average, compared with the baseline: after W8 administration
Description: In the trial, animals were brought in three stages.
Route of administration: Oral administration.
After anesthesia, the animal was placed in a supine position. The left upper arm was shaved clean, and a suitable size cuff was tied according to the standard. The blood oxygen probe was clamped on the animal's finger or toe (except for the left hand), and the red light-sensitive surface was on the side of the finger pad. The blood pressure of the animal was continuously measured for 3 times in the automatic mode with an interval of 1 min. If the difference of DBP, SBP and MBP of blood pressure measured more than three times was not significant (the difference between the highest value and the lowest value was less than 15 mmHg), the measurement was completed.
Testing equipment: GE B40i electrophysiological monitor.
See Table 16 for the effects of administration of each administration group on blood pressure. The blood pressure test of primates required anesthesia, so it was necessary to control the variability of heart rate at various time points to make statistics.

[2] = tested on: rhesus monkeys with spontaneous chronic kidney disease (CKD); test: Effect on UACR (proteinuria), 8-week oral administration; format: in vivo, Macaca mulatta (Rhesus Macaque); details: 1 mg/kg oral once a day; for MALB / UACR: per animal + Mean ± SD; for UACR change rate: 8 weeks vs baseline, negative = decrease, per animal + Mean ± SD (2/5 animals in statistics)
Description: CKD-EPI rating […]-G3b, glomerular filtration rate eGFR: 30 59 ml/min/1.73 m^2; or moderate to severe increase in proteinuria (A2-A3): urine albumin/creatinine ratio (UACR)>15 mg/g-350 mg/g (4-6 hour urine collection), vs. age-matched control group 3±2 mg/g. In the trial, animals were brought in three stages. […] ELISA kit was used for NT-proBNP test. [table]

[3] = 1 mg/kg qd (n = 5), 4 weeks, mean
[4] = 1 mg/kg qd (n = 5), 8 weeks, mean
[5] = 1 mg/kg qd (n=5), p<0.05 vs placebo
[6] = 2 mg/kg qd (n = 5), 4 weeks, mean
[7] = 2 mg/kg qd (n = 5), 8 weeks, mean
[8] = 2 mg/kg qd (n=5), P<0.01 vs placebo
[9] = 5 mg/kg qd (n = 6), 8 weeks, mean
[10] = 5 mg/kg qd (n=6), p<0.01 vs placebo

COC(=O)NCCCn1nc([C@@H](C)N(C(=O)[C@H]2CNCCO2)C2CC2)c2ccc(C)nc21.O=C(O)C[C@H](O)C(=O)O [malate of compound of Formula I]
DBP ([1]; 1 mg/kg qd (n = 5), 4 weeks): 51 mmHg and 54 mmHg and 65 mmHg | SBP ([1]; 1 mg/kg qd (n = 5), 4 weeks): 104 mmHg and 109 mmHg and 124 mmHg | DBP [1, 3]: 61 ± 12 mmHg | SBP [1, 3]: 118 ± 17 mmHg | DBP ([1]; 1 mg/kg qd (n = 5), 8 weeks): 53 mmHg and 49 mmHg | SBP ([1]; 1 mg/kg qd (n = 5), 8 weeks): 94 mmHg and 89 mmHg and 114 mmHg | DBP [1, 4]: 60 ± 12 mmHg | SBP [1, 4]: 111 ± 20 mmHg | DBP ([1]; 1 mg/kg qd (n = 5), Baseline): 54 mmHg and 56 mmHg and 60 mmHg and 59 mmHg and 70 mmHg | DBP ([1]; 1 mg/kg qd (n = 5), Baseline, mean): 60 ± 6 mmHg | SBP ([1]; 1 mg/kg qd (n = 5), Baseline, single animals and Mean ± SD): 101 mmHg and 105 mmHg and 125 mmHg and 121 mmHg and 129 mmHg | SBP ([1]; 1 mg/kg qd (n = 5), Baseline, single animals and Mean ± SD, mean): 116 ± 13 mmHg | DBP reduced by on average, compared with the baseline [1, 5]: 5±4 mmHg | SBP reduced by on average, compared with the baseline [1, 5]: 11±4 mmHg | DBP ([1]; 2 mg/kg qd (n = 5), 4 weeks): 55 mmHg and 83 mmHg and 66 mmHg | SBP ([1]; 2 mg/kg qd (n = 5), 4 weeks): 110 mmHg and 163 mmHg and 138 mmHg | DBP [1, 6]: 71 ± 11 mmHg | SBP [1, 6]: 140 ± 20 mmHg | DBP ([1]; 2 mg/kg qd (n = 5), 8 weeks): 52 mmHg and 70 mmHg and 62 mmHg and 73 mmHg | SBP ([1]; 2 mg/kg qd (n = 5), 8 weeks): 102 mmHg and 160 mmHg and 121 mmHg and 133 mmHg | DBP [1, 7]: 64 ± 8 mmHg | SBP [1, 7]: 128 ± 21 mmHg | DBP ([1]; 2 mg/kg qd (n = 5), Baseline): 58 mmHg and 56 mmHg and 78 mmHg and 83 mmHg and 74 mmHg | DBP ([1]; 2 mg/kg qd (n = 5), Baseline, mean): 70 ± 12 mmHg | SBP ([1]; 2 mg/kg qd (n = 5), Baseline, single animals and Mean ± SD): 126 mmHg and 111 mmHg and 184 mmHg and 143 mmHg and 137 mmHg | SBP ([1]; 2 mg/kg qd (n = 5), Baseline, single animals and Mean ± SD, mean): 140 ± 27 mmHg | DBP reduced by on average, compared with the baseline [1, 8]: 9±8 mmHg | SBP reduced by on average, compared with the baseline [1, 8]: 19±9 mmHg | SBP ([1]; 5 mg/kg qd (n = 6), 4 weeks): 136 mmHg and 124 mmHg and 159 mmHg and 144 mmHg and 139 mmHg | SBP ([1]; 5 mg/kg qd (n = 6), 4 weeks, mean): 138 ± 12 mmHg | DBP ([1]; 5 mg/kg qd (n = 6), 8 weeks): 57 mmHg and 97 mmHg and 60 mmHg and 59 mmHg | SBP ([1]; 5 mg/kg qd (n = 6), 8 weeks): 114 mmHg and 161 mmHg and 121 mmHg and 128 mmHg | DBP [1, 9]: 66 ± 15 mmHg | SBP [1, 9]: 129 ± 16 mmHg | DBP ([1]; 5 mg/kg qd (n = 6), Baseline): 63 mmHg and 105 mmHg and 74 mmHg and 97 mmHg and 70 mmHg and 71 mmHg | DBP ([1]; 5 mg/kg qd (n = 6), Baseline, mean): 80 ± 17 mmHg | SBP ([1]; 5 mg/kg qd (n = 6), Baseline, single animals and Mean ± SD): 132 mmHg and 159 mmHg and 127 mmHg and 180 mmHg and 154 mmHg and 149 mmHg | SBP ([1]; 5 mg/kg qd (n = 6), Baseline, single animals and Mean ± SD, mean): 150 ± 19 mmHg | DBP reduced by on average, compared with the baseline [1, 10]: 10±7 mmHg | SBP reduced by on average, compared with the baseline [1, 10]: 21±8 mmHg | activity of lowering blood pressure ([1]; 1-5 mg/kg qd for 8 weeks): showed the activity of lowering the blood pressure; also recorded: the activity of lowering blood pressure was shown | MALB ([2]; 4 weeks): 4.6 mg/L and 34.1 mg/L and 1.4 mg/L and 5.1 mg/L and 1.3 mg/L | UACR ([2]; 4 weeks): 15.0 mg/g and 28.1 mg/g and 7.2 mg/g and 4.7 mg/g and 8.1 mg/g | MALB ([2]; 4 weeks, mean): 9.3 ± 14.0 mg/L | UACR ([2]; 4 weeks, mean): 12.6 mg/g | UACR change rate [2]: −39.14% and 8.44% | UACR change rate ([2]; mean): −15.35% | UACR Benefit assessment ([2]; 8 weeks, per animal): Benefit and No | MALB ([2]; 8 weeks): 5.2 mg/L and 38.4 mg/L and 0.8 mg/L and 7.6 mg/L and 1.1 mg/L
